Results: patent publication US20240075108A1, “HEPATOCELLULAR CARCINOMA TREATMENTS, PROPHYLACTIC THERAPIES, AND COMPOSITIONS FOR USE THEREWITH” (REPAIR BIOTECHNOLOGIES, INC., priority 2020, published 2024)

Legend:
[1] = test system: CDP-Hep3B cells; assay: MTT cell viability assay with sorafenib, CDP-Hep3B cells; assay type: cell-based; settings: Homo sapiens, 12000 cells/well, 48 hours, n=3 independent experiments, read-out: calculated IC50 (cell viability)
Experimental: (§1) Human Hep3B hepatocellular carcinoma cells (from ATCC at www.atcc.org/products/all/HB-8064.aspx) were grown in Eagle's minimum essential media (EMEM) supplemented with 10% heat-inactivated FBS, PenStrep (100 units/mL//[…]) and 2mM L-Glutamine.
(§2) Hep3B cells were transduced with either empty lentivirus (MOI=5) or lentivirus harboring CDP (MOI=5). Transduced cells were selected by growth in puromycin (4 μg/mL) to establish stable cell lines of Mock-Hep3B (empty lentivirus) and CDP-Hep3B (lentivirus containing CDP). FIG. 1 is a representative western blot showing the expression of Flag-tagged CDP in CDP-Hep3B cells (“CDP”) and not in Mock-Hep3B cells (“Mock”). […]
(§3) The growth and viability of Mock- and CDP-Hep3B cells were assessed by cell proliferation assay, using the tetrazolium salt 3-[4,5-di-methylthiazol-2yl]-2,5-diphenyl-tetrazolium bromide (MTT) reagent (resources.rndsystems.com/pdfs/datasheets/4890-025-k.pdf). […] Detergent reagent was then added to each well to solubilize the formazan dye prior to measuring the absorbance of each sample in a microplate reader at 570 nm.
(§4) Growth rates of stable cell lines were also obtained in the presence of Sorafenib. […] Cell viability was assessed using the MTT assay after 48 hours as described above.

[2] = test system: Mock-Hep3B cells; assay: MTT cell viability assay with sorafenib, Mock-Hep3B cells; assay type: cell-based; settings: Homo sapiens, 12000 cells/well, 48 hours, n=3 independent experiments, read-out: calculated IC50 (cell viability)
Experimental: as §1, §2, §3, §4

## CNC(=O)c1cc(Oc2ccc(NC(=O)Nc3ccc(Cl)c(C(F)(F)F)c3)cc2)ccn1 [sorafenib, Sorafenib]
[1]
  IC50: 4.64 ± 0.16 µM
[2]
  IC50: 4.76 ± 0.62 µM
